Source: ChEMBL document CHEMBL5143690, “Identification of nitrofuranylchalcone tethered benzoxazole-2-amines as potent inhibitors of drug resistant Mycobacterium tuberculosis demonstrating bactericidal efficacy” (Bioorg Med Chem, 2022)
In brackets after ≈: the same amount, converted by molar mass.

What was measured:
Assay type in all cases: functional
[1] = system: Mycobacterium tuberculosis; assay: Antimycobacterial activity against Mycobacterium tuberculosis H37Rv ATCC 27294 assessed as inhibition of bacterial growth measured after 7 days by resazurin microtitre assay; details: H37Rv ATCC 27294, 168 h, time 7 day
Pseudomonas aeruginosa = assay: Antibacterial activity against Pseudomonas aeruginosa ATCC 27853 assessed as reduction in bacterial growth incubated for 16 to 18 hrs by microtiter plate assay; details: time 16-18 hrs
Acinetobacter baumannii = assay: Antibacterial activity against Acinetobacter baumannii BAA 1605 assessed as reduction in bacterial growth incubated for 16 to 18 hrs by microtiter plate assay; details: time 16-18 hrs
Staphylococcus aureus = assay: Antibacterial activity against Staphylococcus aureus ATCC 29213 assessed as reduction in bacterial growth incubated for 16 to 18 hrs by microtiter plate assay; details: time 16-18 hrs
Escherichia coli = assay: Antibacterial activity against Escherichia coli ATCC 25922 assessed as reduction in bacterial growth incubated for 16 to 18 hrs by microtiter plate assay; details: time 16-18 hrs
[2] = system: Mycobacteroides abscessus; assay: Antimycobacterial activity against Mycobacterium abscessus ATCC 19977 assessed as inhibition of bacterial growth after 48 hrs by resazurin microtitre assay
Mycobacteroides chelonae = assay: Antimycobacterial activity against Mycobacterium chelonae ATCC 6841 assessed as inhibition of bacterial growth after 48 hrs by resazurin microtitre assay
[3] = system: Mycolicibacterium fortuitum; assay: Antimycobacterial activity against Mycobacterium fortuitum ATCC 6841 assessed as inhibition of bacterial growth after 48 hrs by resazurin microtitre assay
Klebsiella pneumoniae = assay: Antibacterial activity against Klebsiella pneumoniae BAA 1705 assessed as reduction in bacterial growth incubated for 16 to 18 hrs by microtiter plate assay; details: time 16-18 hrs

| SMILES | MIC [1] | MIC (Pseudomonas aeruginosa) | MIC (Acinetobacter baumannii) | MIC (Staphylococcus aureus) | MIC (Escherichia coli) | MIC [2] | MIC (Mycobacteroides chelonae) | MIC [3] | MIC (Klebsiella pneumoniae) |
| --- | --- | --- | --- | --- | --- | --- | --- | --- | --- |
| COc1cc(C2CC(c3ccccc3)=NN2C(C)=O)cc2nc(N)oc12 (stereo not given) | 0.625 mg/L (≈ 1.78 µM) |  |  |  |  |  |  |  |  |
| O=C(/C=C/c1ccccc1Cl)c1ccc(Nc2nc3ccccc3o2)cc1 | > 64 mg/L | > 64 mg/L | > 64 mg/L | > 64 mg/L | > 64 mg/L | > 64 mg/L | > 64 mg/L | > 64 mg/L | > 64 mg/L |
| O=C(/C=C/c1ccco1)c1ccc(Nc2nc3ccccc3o2)cc1 | 32 mg/L (≈ 96.9 µM) | > 64 mg/L | > 64 mg/L | > 64 mg/L | > 64 mg/L | > 64 mg/L | > 64 mg/L | > 64 mg/L | > 64 mg/L |
| Cc1ccc(/C=C/C(=O)c2ccc(Nc3nc4ccccc4o3)cc2)cc1 | > 64 mg/L | > 64 mg/L | > 64 mg/L | > 64 mg/L | > 64 mg/L | > 64 mg/L | > 64 mg/L | > 64 mg/L | > 64 mg/L |
| C[C@H]1COc2c(N3CCN(C)CC3)c(F)cc3c(=O)c(C(=O)O)cn1c23.C[C@H]1COc2c(N3CCN(C)CC3)c(F)cc3c(=O)c(C(=O)O)cn1c23.O [LEVOFLOXACIN] |  |  |  | 0.125 mg/L | 0.0078 mg/L |  |  |  | 64 mg/L |
| CN(C)c1ccc(/C=C/C(=O)c2ccc(Nc3nc4ccccc4o3)cc2)cc1 | 64 mg/L (≈ 167 µM) | > 64 mg/L | > 64 mg/L | > 64 mg/L | > 64 mg/L | > 64 mg/L | > 64 mg/L | > 64 mg/L | > 64 mg/L |
| O=C(/C=C/c1cccc(Cl)c1)c1ccc(Nc2nc3ccccc3o2)cc1 | > 64 mg/L | > 64 mg/L | > 64 mg/L | > 64 mg/L | > 64 mg/L | > 64 mg/L | > 64 mg/L | > 64 mg/L | > 64 mg/L |
| O=C(/C=C/c1ccncc1)c1ccc(Nc2nc3ccccc3o2)cc1 | 16 mg/L (≈ 46.9 µM) | > 64 mg/L | > 64 mg/L | > 64 mg/L | > 64 mg/L | > 64 mg/L | > 64 mg/L | > 64 mg/L | > 64 mg/L |
| COc1ccc(/C=C/C(=O)c2ccc(Nc3nc4ccccc4o3)cc2)c(OC)c1OC | 16 mg/L (≈ 37.2 µM) | > 64 mg/L | > 64 mg/L | > 64 mg/L | > 64 mg/L | > 64 mg/L | > 64 mg/L | > 64 mg/L | > 64 mg/L |
| COc1cc(/C=C/C(=O)c2ccc(Nc3nc4cc(C(C)(C)C)ccc4o3)cc2)cc(OC)c1OC | 32 mg/L (≈ 65.8 µM) | > 64 mg/L | > 64 mg/L | > 64 mg/L | > 64 mg/L | > 64 mg/L | > 64 mg/L | > 64 mg/L | > 64 mg/L |
| COc1cc(/C=C/C(=O)c2cccc(Nc3nc4ccccc4o3)c2)cc(OC)c1OC | 8 mg/L (≈ 18.6 µM) | > 64 mg/L | > 64 mg/L | > 64 mg/L | > 64 mg/L | > 64 mg/L | > 64 mg/L | > 64 mg/L | > 64 mg/L |
| CC[C@@H](CO)NCCN[C@@H](CC)CO [ETHAMBUTOL] | 2 mg/L (≈ 9.79 µM) |  |  |  |  |  |  |  |  |
| O=C(/C=C/c1ccc(Br)cc1)c1ccc(Nc2nc3ccccc3o2)cc1 | 64 mg/L (≈ 153 µM) | > 64 mg/L | > 64 mg/L | > 64 mg/L | > 64 mg/L | > 64 mg/L | > 64 mg/L | > 64 mg/L | > 64 mg/L |
| O=C(/C=C/c1ccc([N+](=O)[O-])cc1)c1ccc(Nc2nc3ccccc3o2)cc1 | 32 mg/L (≈ 83 µM) | > 64 mg/L | > 64 mg/L | > 64 mg/L | > 64 mg/L | > 64 mg/L | > 64 mg/L | > 64 mg/L | > 64 mg/L |
| COc1ccc(OC)c(/C=C/C(=O)c2ccc(Nc3nc4ccccc4o3)cc2)c1 | > 64 mg/L | > 64 mg/L | > 64 mg/L | > 64 mg/L | > 64 mg/L | > 64 mg/L | > 64 mg/L | > 64 mg/L | > 64 mg/L |
| O=C(/C=C/c1ccc(Cl)cc1)c1ccc(Nc2nc3ccccc3o2)cc1 | 64 mg/L (≈ 171 µM) | > 64 mg/L | > 64 mg/L | > 64 mg/L | > 64 mg/L | > 64 mg/L | > 64 mg/L | > 64 mg/L | > 64 mg/L |
| COc1cc(/C=C/C(=O)c2ccc(Nc3nc4cc([N+](=O)[O-])ccc4o3)cc2)cc(OC)c1OC | 16 mg/L (≈ 33.7 µM) | > 64 mg/L | > 64 mg/L | > 64 mg/L | > 64 mg/L | > 64 mg/L | > 64 mg/L | > 64 mg/L | > 64 mg/L |
| COc1ccc(/C=C/C(=O)c2ccc(Nc3nc4ccccc4o3)cc2)cc1OC | 32 mg/L (≈ 79.9 µM) | > 64 mg/L | > 64 mg/L | > 64 mg/L | > 64 mg/L | > 64 mg/L | > 64 mg/L | > 64 mg/L | > 64 mg/L |
